The values that follow come from patent US20190010524A1, “BIOLOGICAL METHODS FOR PREPARING A FATTY DICARBOXYLIC ACID” (Verdezyne, Inc., priority 2012, published 2019).

For data set [1], the system named is strain sAA1082. Description: Bioreactor conversion of ethyl decanoate to sebacic acid (Example 73). It is filed as cell-based, Candida. As for the experimental part:
(§1) By conversion tests for ethyl decanoate were performed in 0.5 L Infors HT Multifors bioreactors (Infors AG, Switzerland) with working volumes of 0.4 L each. […] Fermentation medium. […] Bioreactors were equipped with two rushton impellers rotating at 1000 rpm. Bioreactors were inoculated to an OD of approximately 0.2 and growth continued for approximately 12-14 hours, at which point the conversion phase was initiated by evenly space boluses of ethyl decanoate. Culture pH was kept constant at 5.8 during the growth phase by automatic addition of 6 N KOH and temperature and airflow were controlled at 30° C. and 1 vvm respectively.
(§2) At induction, the pH was changed to 6.2 and maintained by addition of 6N KOH. Bioreactors were induced with an initial 4.0 ml bolus of decane for 6 hours with an airflow rate of 0.25 vvm to minimize evaporation.
(§3) Following this initial 6 hour induction, airflow was increased to 1 vvm and 58 μl of ethyl decanoate was added every 30 minutes for the next 6 hours. Ethyl decanoate boluses were then increased to 116 μl at a frequency of once per hour for the next 36 hours. In addition, a co-feed of dextrose was fed at a rate of 1.25 g/L-h. Final samples were taken 12 hours after the final ethyl decanoate bolus. Yield calculations were made for all cultures taking only added ethyl decanoate into account due to the volatility of decane and the lack of decanedioic acid formation following the initial induction period.

The next data set concerns strain sAA2178. Described as above. It is filed as cell-based, Candida. As for the experimental part:
as §1, §2, §3

Data set [2] has as its system Candida strain ATCC 20962. The data set is described as above. The format is cell-based. Particulars: decane induction. As for the experimental part:
as §1, §2
Following this initial 6 hour induction, airflow was increased to 1 vvm and 58 μl of ethyl decanoate was added every 30 minutes for the next 6 hours. Ethyl decanoate boluses were then increased to 116 μl at a frequency of once per hour for the next 36 hours. In addition, a co-feed of dextrose was fed at a rate of 1.25 g/L-h. Final samples were taken 12 hours after the final ethyl decanoate bolus. […]

In data set [3] the test system is Candida. Particulars: stated as background; cited from earlier work.
The test system of data set [4] is Candida tropicalis (ATCC20962). Nature of the data set: Fermentation procedure for conversion of decane to sebacic acid (Example 3). The format is cell-based. Particulars: GC at 44 hours after initiating the conversion phase, FIG. 16. The procedure: Filter sterilized modified SP92-glycerol fermentation medium (6.7 g/L yeast nitrogen base, 3.0 g/L yeast extract, 3.0 g/L (NH4)2SO4, 1.0 g/L K2HPO4, 1.0 g/L KH2PO4, 20 g/L glycerol) is transferred to a sterile fermentation vessel. Growth of Candida tropicalis (ATCC20962) is inoculated to an initial OD600nm of about 1.0 with a 5% inoculum and growth carried out under the following conditions: 30° C. with shaking at about 1000 rpm, 1 volume per volume per minute aeration (vvm), pH 5.8 and initial volume of 0.3 L. Growth proceeds for approximately 8 hours and the conversion phase is initiated by the addition of decane to 2 g/L. Continuous feeds for decane (1 g/L-h) and glucose (1.5 g/L-h) are initiated at the same time as the addition of the decane bolus. Fermentation conditions are maintained at 30° C., 1000 rpm, 1 vvm, and pH 5.8 for 44 hours.
Samples were collected for GC analysis at 44 hours after initiating the conversion phase. […] Significant evaporative losses from the decane feed bottles prevented an accurate determination of product yield.

For data set [5], the system named is Candida. Nature of the data set: Toxicity of feedstock or by-product to the yeast (viable cell counts). The format is cell-based. The source says: Methyl esters of fatty acids can be converted to the corresponding diacid by beta-oxidation-blocked strains of Candida since Candida produces an esterase that demethylates the fatty acid ester during the omega-oxidation process, allowing conversion of methyl decanoate into the non-toxic diacid, sebacic acid. Unfortunately, having an excess of methyl decanoate in the fermentation broth prior to induction of the enzymes involved in omega-oxidation process results in sufficient demethylation of methyl decanoate to produce toxic levels of decanoic acid, resulting in rapid cell death and a failed fermentation. The standard fermentation procedure would utilize the feedstock (methyl decanoate) as inducer.
Growth was initiated with an inoculum of pre-culture to an initial OD600nm=1.0 and growth conditions of 35° C., 1000 rpm, 1 vvm, pH 5.8. Growth continued for approximately 10-12 h at which point the conversion phase was induced by the addition of either: 1) a bolus of 10 g/L of decane (Sigma-Aldrich #457116) for 6 h after which a continuous feed of methyl decanoate (TCI America #D0023) at 0.25 g/L-h was initiated or 2) no addition of decane. Induction was performed by initiating a continuous feed of methyl decanoate at 0.25 g/L-h. Because of the volatility of decane, the aeration rate was reduced to 0.3 vvm during the 6-h induction phase with decane as inducer. […]

Data set [6] relates to strain sAA1082. Conditions: ethanol co-feed 0.7 g/L-h. As for the experimental part: Fermentation medium (MM1) at pH 5.8 was filter sterilized and transferred to a sterile fermentation vessel. For the control, dextrose was used for both growth and co-feed. For the experimental fermentations, glycerol or xylose was substituted oh a g/g basis for dextrose in both the growth medium (MM1) and in the co-feed. Growth was initiated with an inoculum of pre-culture to an initial OD600nm=1.0 and growth conditions of 35° C., 1000 rpm, 1 vvm, pH 5.8. Growth continued for approximately 10-12 h at which point the conversion phase was initiated by a continuous feed of methyl laurate. Methyl laurate was fed at a rate of 0.7 g/L-h for the first 24 h; 1.2 g/L-h from 24 h to termination. In addition, a co-feed of ethanol was fed at a rate of 0.7 g/L-h. The ethanol feed-rate was reduced relative to what would normally be used for glucose (1.2 g/l-h), since ethanol is theoretically a more energy-rich compound. At induction, the temperature was changed to 30° C. and the pH was maintained at 6.0 by addition of 6N KOH.

The structures appear in SMILES notation.

For the molecule `CCCCCCCCCC(=O)OCC` [Ethyl decanoate], the “% improvement over ATTC 20962 sAA1082” value in the data set on strain sAA1082 [1] was determined as 58.9%. In addition, the “Feedstock Yield (g sebacic acid/g feedstock) sAA1082” value with strain sAA1082 [1] (bioreactor, decane induction) is given as 1.088 g sebacic acid/g feedstock. Further, the “% improvement over ATTC 20962 sAA2178” value in the data set on strain sAA2178 was 50.7%. Besides, the “Feedstock Yield (g sebacic acid/g feedstock) sAA2178” value with strain sAA2178 (bioreactor, decane induction) is recorded as 1.032 g sebacic acid/g feedstock. Moreover, the “Feedstock Yield (g sebacic acid/g feedstock) ATCC 20962” value in data set [2] was 0.685 g sebacic acid/g feedstock.
With `CCCCCCCCCCCC(=O)O` [Lauric acid], in the data set with Candida [3], the “toxicity to Candida” value was “not as toxic to Candida as is decanoic acid”.
Regarding `CCCCCCCCCC` [decane], the conversion of decane entry in data set [4] is reported as “converted exclusively to the C10 dicarboxylic acid, sebacic acid”.
For the molecule `CCCCCCCCCC(=O)O` [decanoic acid], the “toxicity to Candida (viable cell count data)” value in the data set on Candida [5] is recorded as “demonstrates the toxicity”. The “toxicity to Candida” value in the data set on Candida [3] is recorded as “high degree of toxicity”.
In the case of `CCO` [ethanol], in the data set with strain sAA1082 [6], the “accumulation of HFA” value was determined as 5.3 g/L, the “accumulation of lauric acid” value was 8.5 g/L and the “accumulation of methyl laurate” value is 38 g/L. Moreover, in the data set with strain sAA1082 [6] (methyl laurate feed), the DDDA productivity is recorded as 0.446 gL.
With `CCCCCCCCCC(=O)OC` [methyl decanoate], in the data set with Candida [3], the “toxicity to Candida” value is on record as “very low toxicity”.
